Earlier results as cited in patent US6586615B1, “α-aminoboronic acids prepared by novel synthetic methods” (Bristol-Myers Squibb Company, priority 2001, dated 2003).

Biological target: chymotrypsin (Bos taurus, UniProt P00766)
Details: inhibits chymotrypsin; background, Matteson J. Am. Chem. Soc. 103, 5241-5242 (1981)

Ki: 2100 nM
SMILES: CC(=O)NC(Cc1ccccc1)B(O)O (stereo not shown) [Ac-boroPhe-OH]
